Reference: PubChem BioAssay AID720601 (Broad Institute, 2013)
Records with an inconclusive call do not appear. Active and inactive are the calls of the source.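 How the source made its calls: active means compounds lowering the viability dye signal with a fitted AC50 within twice the top dose in all three time points; inconclusive means time points disagree in their calls; inactive means inactive at every time point, including signal rises.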

Legend:
[1] = C2C12 mouse myoblast viability loss, dose response, cytotoxicity control for HRAS target identification, cell-based, Alamar Blue fluorescence, 8/24/48 h, dry powder (AID 720601); details: C2C12 mouse myoblast viability, Alamar Blue, 8/24/48 h, at 35 µM, stronger effect = lower value
[2] = system: C2C12 mouse myoblast viability, Alamar Blue, 8/24/48 h; assay: as above

| SMILES | activity ([1]; 8 h viability change) [%] | activity ([1]; 24 h viability change) [%] | AC50 [2] |
| --- | --- | --- | --- |
| Cc1onc(C(=O)N2CCN(C(c3ccncc3)c3ccncc3)CC2)c1[N+](=O)[O-] | -0.518 | -6.22 |  |
| CCC(=O)N(c1ccc(OC)c(Cl)c1)C(C(=O)NCCc1ccccc1)c1cccs1 (stereo not given) | 0.483 | -13.2 | > 70 µM (inactive) |
